Reference: US7645878B2, “Process for preparing quinazoline Rho-kinase inhibitors and intermediates thereof” (Bayer Healthcare LLC, priority 2002, dated 2010)

melting point: 267 to 272 °C
Structure (SMILES): c1ccc2c(Nc3ccc4[nH]ncc4c3)nc(-c3ccc4c(c3)CCO4)nc2c1 [Example 9, 2-(2,3-dihydro-1-benzofuran-5-yl)-N-(1H-indazol-5-yl)-4-quinazolinamine]
